Data taken from PubChem BioAssay AID1963442 (Molecular Pharmacology Branch, DTP, NCI, 2024).

System: MPNST complex spheroid with HUVEC/MSC, growth, % test/control
Assay: Anticancer human tumor MPNST cell line growth inhibition [Asc];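 further: compounds left on spheroids for seven days before reading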
Conditions: for IC50: curve of first compound; for viability, T/C: stronger effect = lower value
In short: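 Stromal components (HUVEC and hMSC) are co-assembled with the cancer cells into multicellular spheroids. Drugs are then added singly or paired, at concentrations falling by half-log increments from a clinically achievable maximum, capped at 10 microM without known Cmax.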

[1] = second compound 0.00316 µM, first compound 0.00316 µM
[2] = second compound 0.00316 µM, first compound 0.01 µM
[3] = second compound 0.00316 µM, first compound 0.0316 µM
[4] = second compound 0.00316 µM, first compound 0.1 µM
[5] = second compound 0.00316 µM, first compound 0.316 µM
[6] = second compound 0.00316 µM, first compound 1 µM
[7] = second compound 0.01 µM, first compound 0.00316 µM
[8] = second compound 0.01 µM, first compound 0.01 µM
[9] = second compound 0.01 µM, first compound 0.0316 µM
[10] = second compound 0.01 µM, first compound 0.1 µM
[11] = second compound 0.01 µM, first compound 0.316 µM
[12] = second compound 0.01 µM, first compound 1 µM
[13] = second compound 0.0316 µM, first compound 0.00316 µM
[14] = second compound 0.0316 µM, first compound 0.01 µM
[15] = second compound 0.0316 µM, first compound 0.0316 µM
[16] = second compound 0.0316 µM, first compound 0.1 µM
[17] = second compound 0.0316 µM, first compound 0.316 µM
[18] = second compound 0.0316 µM, first compound 1 µM
[19] = second compound 0.1 µM, first compound 0.00316 µM
[20] = second compound 0.1 µM, first compound 0.01 µM
[21] = second compound 0.1 µM, first compound 0.0316 µM
[22] = second compound 0.1 µM, first compound 0.1 µM
[23] = second compound 0.1 µM, first compound 0.316 µM
[24] = second compound 0.1 µM, first compound 1 µM
[25] = second compound 0.316 µM, first compound 0.00316 µM
[26] = second compound 0.316 µM, first compound 0.01 µM
[27] = second compound 0.316 µM, first compound 0.0316 µM
[28] = second compound 0.316 µM, first compound 0.1 µM
[29] = second compound 0.316 µM, first compound 0.316 µM
[30] = second compound 0.316 µM, first compound 1 µM
[31] = second compound 1 µM, first compound 0.00316 µM
[32] = second compound 1 µM, first compound 0.01 µM
[33] = second compound 1 µM, first compound 0.0316 µM
[34] = second compound 1 µM, first compound 0.1 µM
[35] = second compound 1 µM, first compound 0.316 µM
[36] = second compound 1 µM, first compound 1 µM

Compound: CCN1CCN(Cc2ccc(Nc3ncc(F)c(-c4cc(F)c5nc(C)n(C(C)C)c5c4)n3)nc2)CC1 + CNC(C)C(=O)NC1CN(S(=O)(=O)c2cccc(S(=O)(=O)N3CCC4CCC(C(=O)NC(c5ccccc5)c5ccccc5)N4C(=O)C(NC(=O)C(C)NC)C3)c2)CCC2CCC(C(=O)NC(c3ccccc3)c3ccccc3)N2C1=O
- IC50 (second compound 0.00316 µM): > 1000 nM
- IC50 (second compound 0.01 µM): > 1000 nM
- IC50 (second compound 0.0316 µM): > 1000 nM
- IC50 (second compound 0.1 µM): > 1000 nM
- IC50 (second compound 0.316 µM): > 1000 nM
- IC50 (second compound 1 µM): > 1000 nM
- viability, T/C [1]: 80.7%
- viability, T/C [2]: 58.2%
- viability, T/C [3]: 58.9%
- viability, T/C [4]: 56.2%
- viability, T/C [5]: 51.9%
- viability, T/C [6]: 57.2%
- viability, T/C [7]: 141%
- viability, T/C [8]: 83.2%
- viability, T/C [9]: 102%
- viability, T/C [10]: 71.8%
- viability, T/C [11]: 61.2%
- viability, T/C [12]: 73%
- viability, T/C [13]: 94.5%
- viability, T/C [14]: 92.9%
- viability, T/C [15]: 106%
- viability, T/C [16]: 66.5%
- viability, T/C [17]: 72.5%
- viability, T/C [18]: 87.1%
- viability, T/C [19]: 79.7%
- viability, T/C [20]: 74.2%
- viability, T/C [21]: 75.3%
- viability, T/C [22]: 61.7%
- viability, T/C [23]: 60.7%
- viability, T/C [24]: 82.7%
- viability, T/C [25]: 86.5%
- viability, T/C [26]: 69.8%
- viability, T/C [27]: 106%
- viability, T/C [28]: 104%
- viability, T/C [29]: 71.9%
- viability, T/C [30]: 76.7%
- viability, T/C [31]: 66.6%
- viability, T/C [32]: 83%
- viability, T/C [33]: 66.4%
- viability, T/C [34]: 61.4%
- viability, T/C [35]: 73.9%
- viability, T/C [36]: 68.7%

Compound: Cn1ncnc1[C@H]1c2n[nH]c(=O)c3cc(F)cc(c23)N[C@@H]1c1ccc(F)cc1 + CNC(C)C(=O)NC1CN(S(=O)(=O)c2cccc(S(=O)(=O)N3CCC4CCC(C(=O)NC(c5ccccc5)c5ccccc5)N4C(=O)C(NC(=O)C(C)NC)C3)c2)CCC2CCC(C(=O)NC(c3ccccc3)c3ccccc3)N2C1=O
- IC50 (second compound 0.00316 µM): < 0.316 nM
- IC50 (second compound 0.01 µM): 1.09 nM
- IC50 (second compound 0.0316 µM): 23.2 nM
- IC50 (second compound 0.1 µM): 82.1 nM
- IC50 (second compound 0.316 µM): 26.7 nM
- IC50 (second compound 1 µM): 96.7 nM
- viability, T/C (second compound 0.00316 µM, first compound 0.000316 µM): 12.2%
- viability, T/C (second compound 0.00316 µM, first compound 0.001 µM): 11.4%
- viability, T/C [1]: 10.4%
- viability, T/C [2]: 11.5%
- viability, T/C [3]: 11.3%
- viability, T/C [4]: 10.7%
- viability, T/C (second compound 0.01 µM, first compound 0.000316 µM): 58.8%
- viability, T/C (second compound 0.01 µM, first compound 0.001 µM): 46.2%
- viability, T/C [7]: 50.8%
- viability, T/C [8]: 37.4%
- viability, T/C [9]: 32.5%
- viability, T/C [10]: 34.8%
- viability, T/C (second compound 0.0316 µM, first compound 0.000316 µM): 77.7%
- viability, T/C (second compound 0.0316 µM, first compound 0.001 µM): 73.9%
- viability, T/C [13]: 73.6%
- viability, T/C [14]: 65.4%
- viability, T/C [15]: 43.5%
- viability, T/C [16]: 45.2%
- viability, T/C (second compound 0.1 µM, first compound 0.000316 µM): 90.3%
- viability, T/C (second compound 0.1 µM, first compound 0.001 µM): 64.1%
- viability, T/C [19]: 70.6%
- viability, T/C [20]: 74.7%
- viability, T/C [21]: 61.1%
- viability, T/C [22]: 46.4%
- viability, T/C (second compound 0.316 µM, first compound 0.000316 µM): 76.2%
- viability, T/C (second compound 0.316 µM, first compound 0.001 µM): 62.5%
- viability, T/C [25]: 88.4%
- viability, T/C [26]: 57.5%
- viability, T/C [27]: 51.3%
- viability, T/C [28]: 46.1%
- viability, T/C (second compound 1 µM, first compound 0.000316 µM): 51.3%
- viability, T/C (second compound 1 µM, first compound 0.001 µM): 68.3%
- viability, T/C [31]: 49.5%
- viability, T/C [32]: 73.9%
- viability, T/C [33]: 53.9%
- viability, T/C [34]: 50.1%

Compound: O=C(c1ccc(F)c(F)c1Nc1ccc(I)cc1F)N1CC(O)([C@@H]2CCCCN2)C1 + CNC(C)C(=O)NC1CN(S(=O)(=O)c2cccc(S(=O)(=O)N3CCC4CCC(C(=O)NC(c5ccccc5)c5ccccc5)N4C(=O)C(NC(=O)C(C)NC)C3)c2)CCC2CCC(C(=O)NC(c3ccccc3)c3ccccc3)N2C1=O
- IC50 (second compound 0.00316 µM): 472 nM
- IC50 (second compound 0.01 µM): 781 nM
- IC50 (second compound 0.0316 µM): 858 nM
- IC50 (second compound 0.1 µM): 922 nM
- IC50 (second compound 0.316 µM): 868 nM
- IC50 (second compound 1 µM): 892 nM
- viability, T/C [1]: 71%
- viability, T/C [2]: 46.5%
- viability, T/C [3]: 82.4%
- viability, T/C [4]: 65.1%
- viability, T/C [5]: 66.1%
- viability, T/C [6]: 19.9%
- viability, T/C [7]: 107%
- viability, T/C [8]: 103%
- viability, T/C [9]: 131%
- viability, T/C [10]: 134%
- viability, T/C [11]: 108%
- viability, T/C [12]: 34.2%
- viability, T/C [13]: 108%
- viability, T/C [14]: 88.7%
- viability, T/C [15]: 110%
- viability, T/C [16]: 126%
- viability, T/C [17]: 77.6%
- viability, T/C [18]: 45.8%
- viability, T/C [19]: 86.9%
- viability, T/C [20]: 89.1%
- viability, T/C [21]: 81.6%
- viability, T/C [22]: 90.5%
- viability, T/C [23]: 97.2%
- viability, T/C [24]: 47%
- viability, T/C [25]: 69.7%
- viability, T/C [26]: 67.3%
- viability, T/C [27]: 65.5%
- viability, T/C [28]: 134%
- viability, T/C [29]: 87.7%
- viability, T/C [30]: 45%
- viability, T/C [31]: 70.1%
- viability, T/C [32]: 80.1%
- viability, T/C [33]: 105%
- viability, T/C [34]: 113%
- viability, T/C [35]: 96%
- viability, T/C [36]: 45.2%
